# In ChEMBL document CHEMBL1126960 (J Med Chem, 1993):
# Legend:
# D(2) dopamine receptor = D(2) dopamine receptor (Homo sapiens, UniProt P14416); experiment: biochemical
# Description: Displacement of [3H]spiperone from CHO-K1 cell membranes expressing human dopamine receptor D2
# Sigma 2 receptor [1] = experiment: Tested for [3H]DTG binding to sigma-2 receptor in NG108-15 cell membranes
# D(3) dopamine receptor = D(3) dopamine receptor (Homo sapiens, UniProt P35462); experiment: biochemical
# Description: Displacement of [3H]-spiperone from CHO-K1 cell membranes expressing human dopamine 3 receptors
# Rattus norvegicus [2] = species on record: Rattus norvegicus
# Description: Effect of compound (2 mg/kg ip) on the concentration of DA in rat mesolimbic region
# Rattus norvegicus [3] = species on record: Rattus norvegicus; settings: Striatum
# Description: Effect of compound (2 mg/kg ip) on the concentration of DOPAC/DA in rat striatum
# Rattus norvegicus [4] = species on record: Rattus norvegicus; settings: Striatum; remark: listed apart in the source
# Description: Effect of compound (2 mg/kg ip) on the concentration of 5-HT in rat striatum
# Rattus norvegicus [5] = species on record: Rattus norvegicus; remark: listed apart in the source
# Description: Effect of compound (2 mg/kg ip) on the concentration of HVA in rat mesolimbic region
# Rattus norvegicus [6] = species on record: Rattus norvegicus; settings: Striatum; remark: listed apart in the source
# Description: Effect of compound (2 mg/kg ip) on the concentration of DOPAC in rat striatum
# Rattus norvegicus [7] = species on record: Rattus norvegicus; remark: listed apart in the source
# Description: Effect of compound (2 mg/kg ip) on the concentration of 5-HT in rat mesolimbic region
# Rattus norvegicus [8] = species on record: Rattus norvegicus; settings: Frontal cortex
# Description: Effect of compound (2 mg/kg ip) on the concentration of 5-HIAA in rat frontal cortex
# Rattus norvegicus [9] = species on record: Rattus norvegicus; settings: Striatum; remark: listed apart in the source
# Description: Effect of compound (2 mg/kg ip) on the concentration of DA in rat striatum
# Sigma 2 receptor [10] = experiment: Tested for [3H]DTG binding to sigma-2 receptor in NG108-15 membrane; format: cell membranes
# Rattus norvegicus [11] = species on record: Rattus norvegicus; settings: Frontal cortex; remark: listed apart in the source
# Description: Effect of compound (2 mg/kg ip) on the concentration of DA in rat frontal cortex
# Rattus norvegicus [12] = species on record: Rattus norvegicus; settings: Striatum; remark: listed apart in the source
# Description: Effect of compound (2 mg/kg ip) on the concentration of HVA in rat striatum
# Rattus norvegicus [13] = species on record: Rattus norvegicus; settings: Frontal cortex; remark: listed apart in the source
# Description: Effect of compound (2 mg/kg ip) on the concentration of DOPAC in rat frontal cortex
# Rattus norvegicus [14] = species on record: Rattus norvegicus; settings: Striatum; remark: listed apart in the source
# Description: Effect of compound (2 mg/kg ip) on the concentration of 5-HIAA in rat striatum
# Rattus norvegicus [15] = species on record: Rattus norvegicus; settings: Frontal cortex; remark: listed apart in the source
# Description: Effect of compound (2 mg/kg ip) on the concentration of HVA in rat frontal cortex
# Rattus norvegicus [16] = species on record: Rattus norvegicus; settings: Frontal cortex; remark: listed apart in the source
# Description: Effect of compound (2 mg/kg ip) on the concentration of DOPAC/DA in rat frontal cortex
# Rattus norvegicus [17] = species on record: Rattus norvegicus; remark: listed apart in the source
# Description: Effect of compound (2 mg/kg ip) on the concentration of DOPAC in rat mesolimbic region
# Rattus norvegicus [18] = species on record: Rattus norvegicus; remark: listed apart in the source
# Description: Effect of compound (2 mg/kg ip) on the concentration of DOPAC/DA in rat mesolimbic region
# Rattus norvegicus [19] = species on record: Rattus norvegicus; settings: Frontal cortex; remark: listed apart in the source
# Description: Effect of compound (2 mg/kg ip) on the concentration of 5-HT in rat frontal cortex
# Rattus norvegicus [20] = species on record: Rattus norvegicus; remark: listed apart in the source
# Description: Effect of compound (2 mg/kg ip) on the concentration of 5-HIAA in rat mesolimbic region
# Rattus norvegicus [21] = species on record: Rattus norvegicus; remark: listed apart in the source
# Description: Effect of compound (0.2 mg/kg ip) on the concentration of DOPAC in rat mesolimbic region
# Rattus norvegicus [22] = species on record: Rattus norvegicus; settings: Striatum; remark: listed apart in the source
# Description: Effect of compound (0.2 mg/kg ip) on the concentration of DOPAC/DA in rat striatum
# Rattus norvegicus [23] = species on record: Rattus norvegicus; settings: Frontal cortex; remark: listed apart in the source
# Description: Effect of compound (0.2 mg/kg ip) on the concentration of DOPAC in rat frontal cortex
# Rattus norvegicus [24] = species on record: Rattus norvegicus; settings: Frontal cortex; remark: listed apart in the source
# Description: Effect of compound on (0.2 mg/kg ip) the concentration of 5-HIAA in rat frontal cortex
# Rattus norvegicus [25] = species on record: Rattus norvegicus; remark: listed apart in the source
# Description: Effect of compound (0.2 mg/kg ip) on the concentration of DA in rat mesolimbic region
# Rattus norvegicus [26] = species on record: Rattus norvegicus; remark: listed apart in the source
# Description: Effect of compound on (0.2 mg/kg ip) the concentration of 5-HIAA in rat mesolimbic region
# Rattus norvegicus [27] = species on record: Rattus norvegicus; settings: Striatum; remark: listed apart in the source
# Description: Effect of compound (0.2 mg/kg ip) on the concentration of DOPAC in rat striatum
# Rattus norvegicus [28] = species on record: Rattus norvegicus; settings: Frontal cortex; remark: listed apart in the source
# Description: Effect of compound on (0.2 mg/kg ip) the concentration of 5-HT in rat frontal cortex
# Rattus norvegicus [29] = species on record: Rattus norvegicus; settings: Striatum; remark: listed apart in the source
# Description: Effect of compound (0.2 mg/kg ip) on the concentration of DA in rat striatum
# Rattus norvegicus [30] = species on record: Rattus norvegicus; settings: Striatum; remark: listed apart in the source
# Description: Effect of compound (0.2 mg/kg ip) on the concentration of 5-HT in rat striatum
# Rattus norvegicus [31] = species on record: Rattus norvegicus; settings: Striatum; remark: listed apart in the source
# Description: Effect of compound (0.2 mg/kg ip) on the concentration of HVA in rat striatum
# Rattus norvegicus [32] = species on record: Rattus norvegicus; remark: listed apart in the source
# Description: Effect of compound (0.2 mg/kg ip) on the concentration of HVA in rat mesolimbic region
# Rattus norvegicus [33] = species on record: Rattus norvegicus; settings: Frontal cortex; remark: listed apart in the source
# Description: Effect of compound (0.2 mg/kg ip) on the concentration of HVA in rat frontal cortex
# Rattus norvegicus [34] = species on record: Rattus norvegicus; remark: listed apart in the source
# Description: Effect of compound on (0.2 mg/kg ip) the concentration of 5-HT in rat mesolimbic region
# Rattus norvegicus [35] = species on record: Rattus norvegicus; settings: Frontal cortex; remark: listed apart in the source
# Description: Effect of compound (0.2 mg/kg ip) on the concentration of DA in rat frontal cortex
# Rattus norvegicus [36] = species on record: Rattus norvegicus; remark: listed apart in the source
# Description: Effect of compound (0.2 mg/kg ip) on the concentration of DOPAC/DA in rat mesolimbic region
# Rattus norvegicus [37] = species on record: Rattus norvegicus; settings: Frontal cortex; remark: listed apart in the source
# Description: Effect of compound on (0.2 mg/kg ip) the concentration of DOPAC/DA in rat frontal cortex
# Rattus norvegicus [38] = species on record: Rattus norvegicus; settings: Striatum; remark: listed apart in the source
# Description: Effect of compound (0.2 mg/kg ip) on the concentration of 5-HIAA in rat striatum
# D(2) dopamine receptor, sequence (P14416 whole entry): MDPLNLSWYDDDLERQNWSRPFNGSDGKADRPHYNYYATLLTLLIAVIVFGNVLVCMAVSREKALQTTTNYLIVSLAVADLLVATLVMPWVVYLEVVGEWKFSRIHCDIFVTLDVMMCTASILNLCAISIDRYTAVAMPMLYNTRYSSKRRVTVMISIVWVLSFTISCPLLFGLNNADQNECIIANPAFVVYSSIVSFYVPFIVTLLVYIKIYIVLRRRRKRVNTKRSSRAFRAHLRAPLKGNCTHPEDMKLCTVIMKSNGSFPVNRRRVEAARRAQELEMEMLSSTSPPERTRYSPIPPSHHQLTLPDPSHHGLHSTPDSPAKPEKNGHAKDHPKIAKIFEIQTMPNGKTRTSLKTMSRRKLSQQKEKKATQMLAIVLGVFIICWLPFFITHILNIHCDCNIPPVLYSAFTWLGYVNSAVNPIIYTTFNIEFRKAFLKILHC
# D(3) dopamine receptor, sequence (P35462 whole entry): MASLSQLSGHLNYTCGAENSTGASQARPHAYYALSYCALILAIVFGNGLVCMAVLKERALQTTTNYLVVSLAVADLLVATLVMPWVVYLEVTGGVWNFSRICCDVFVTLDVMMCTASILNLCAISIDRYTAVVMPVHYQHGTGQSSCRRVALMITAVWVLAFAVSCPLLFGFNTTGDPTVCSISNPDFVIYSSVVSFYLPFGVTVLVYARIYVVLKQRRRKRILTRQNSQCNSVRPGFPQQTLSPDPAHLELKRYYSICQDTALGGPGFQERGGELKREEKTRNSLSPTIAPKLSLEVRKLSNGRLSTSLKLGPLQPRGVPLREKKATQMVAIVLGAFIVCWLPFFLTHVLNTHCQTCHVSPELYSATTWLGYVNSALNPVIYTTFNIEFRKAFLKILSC
structure (smiles),measurement,setting,value
O[C@H](CCCN1CCN(c2ccccn2)CC1)c1ccc(F)cc1,Ki,D(2) dopamine receptor,403 nM
same,Ki,Sigma 2 receptor [1],280 nM
same,Ki,D(3) dopamine receptor,374 nM
O[C@@H](CCCN1CCC(O)(c2ccc(Cl)cc2)CC1)c1ccc(F)cc1,Concentration (ng (g of tissue)-1),Rattus norvegicus [2],2230
same,Concentration (ng (g of tissue)-1),Rattus norvegicus [3],0.523
same,Concentration (ng (g of tissue)-1),Rattus norvegicus [4],367
same,Concentration (ng (g of tissue)-1),Rattus norvegicus [5],788
same,Concentration (ng (g of tissue)-1),Rattus norvegicus [6],2740
same,Concentration (ng (g of tissue)-1),Rattus norvegicus [7],639
same,Concentration (ng (g of tissue)-1),Rattus norvegicus [8],156
same,Concentration (ng (g of tissue)-1),Rattus norvegicus [9],5230
same,Ki,Sigma 2 receptor [10],8.2 nM
same,Concentration (ng (g of tissue)-1),Rattus norvegicus [11],19
same,Ki,D(3) dopamine receptor,330 nM
same,Concentration (ng (g of tissue)-1),Rattus norvegicus [12],1980
same,Concentration (ng (g of tissue)-1),Rattus norvegicus [13],32
same,Concentration (ng (g of tissue)-1),Rattus norvegicus [14],437
same,Concentration (ng (g of tissue)-1),Rattus norvegicus [15],80
same,Concentration (ng (g of tissue)-1),Rattus norvegicus [16],1.7
same,Concentration (ng (g of tissue)-1),Rattus norvegicus [17],1310
same,Concentration (ng (g of tissue)-1),Rattus norvegicus [18],0.588
same,Concentration (ng (g of tissue)-1),Rattus norvegicus [19],165
same,Concentration (ng (g of tissue)-1),Rattus norvegicus [20],527
O=C(CCCN1CCC(O)(c2ccc(Cl)cc2)CC1)c1ccc(F)cc1,Concentration (ng (g of tissue)-1),Rattus norvegicus [21],986
same,Concentration (ng (g of tissue)-1),Rattus norvegicus [22],0.558
same,Concentration (ng (g of tissue)-1),Rattus norvegicus [23],32
same,Concentration (ng (g of tissue)-1),Rattus norvegicus [24],180
same,Concentration (ng (g of tissue)-1),Rattus norvegicus [25],1680
same,Concentration (ng (g of tissue)-1),Rattus norvegicus [26],648
same,Concentration (ng (g of tissue)-1),Rattus norvegicus [27],2870
same,Concentration (ng (g of tissue)-1),Rattus norvegicus [28],160
same,Concentration (ng (g of tissue)-1),Rattus norvegicus [29],5140
same,Concentration (ng (g of tissue)-1),Rattus norvegicus [30],407
same,Concentration (ng (g of tissue)-1),Rattus norvegicus [31],2190
same,Concentration (ng (g of tissue)-1),Rattus norvegicus [32],669
same,Concentration (ng (g of tissue)-1),Rattus norvegicus [33],102
same,Concentration (ng (g of tissue)-1),Rattus norvegicus [34],657
same,Concentration (ng (g of tissue)-1),Rattus norvegicus [35],27
same,Concentration (ng (g of tissue)-1),Rattus norvegicus [36],0.587
same,Concentration (ng (g of tissue)-1),Rattus norvegicus [37],1.18
same,Concentration (ng (g of tissue)-1),Rattus norvegicus [38],552
O[C@@H](CCCN1CCN(c2ncc(F)cn2)CC1)c1ccc(F)cc1 [BMY-14802],Ki,D(2) dopamine receptor,3350 nM
same,Ki,Sigma 2 receptor [1],96 nM
same,Ki,D(3) dopamine receptor,> 2000 nM
O=C(CCCN1CCN(c2ccccn2)CC1)c1ccc(F)cc1 [AZAPERONE],Ki,Sigma 2 receptor [1],51 nM
O[C@H](CCCN1CCN(c2ncc(F)cn2)CC1)c1ccc(F)cc1,Ki,D(2) dopamine receptor,> 5000 nM
same,Ki,Sigma 2 receptor [1],1240 nM
same,Ki,D(3) dopamine receptor,> 2000 nM
O[C@H](CCCN1CCC(O)(c2ccc(Cl)cc2)CC1)c1ccc(F)cc1,Concentration (ng (g of tissue)-1),Rattus norvegicus [2],1660
same,Concentration (ng (g of tissue)-1),Rattus norvegicus [3],0.651
same,Concentration (ng (g of tissue)-1),Rattus norvegicus [4],397
same,Concentration (ng (g of tissue)-1),Rattus norvegicus [5],641
same,Concentration (ng (g of tissue)-1),Rattus norvegicus [6],2440
same,Concentration (ng (g of tissue)-1),Rattus norvegicus [7],627
same,Concentration (ng (g of tissue)-1),Rattus norvegicus [8],172
same,Concentration (ng (g of tissue)-1),Rattus norvegicus [9],3750
same,Ki,Sigma 2 receptor [10],31 nM
same,Concentration (ng (g of tissue)-1),Rattus norvegicus [11],18
same,Ki,D(3) dopamine receptor,1300 nM
same,Concentration (ng (g of tissue)-1),Rattus norvegicus [12],1780
same,Concentration (ng (g of tissue)-1),Rattus norvegicus [13],32
same,Concentration (ng (g of tissue)-1),Rattus norvegicus [14],510
same,Concentration (ng (g of tissue)-1),Rattus norvegicus [15],98
same,Concentration (ng (g of tissue)-1),Rattus norvegicus [16],1.81
same,Concentration (ng (g of tissue)-1),Rattus norvegicus [17],1020
same,Concentration (ng (g of tissue)-1),Rattus norvegicus [18],0.616
same,Concentration (ng (g of tissue)-1),Rattus norvegicus [19],154
same,Concentration (ng (g of tissue)-1),Rattus norvegicus [20],492
O[C@@H](CCCN1CCN(c2ccccn2)CC1)c1ccc(F)cc1,Ki,D(2) dopamine receptor,101 nM
same,Ki,Sigma 2 receptor [1],38 nM
same,Ki,D(3) dopamine receptor,125 nM
